The structures appear in SMILES notation. Activity calls are given as the source filed them.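 Rule for the calls: active = half-inhibitory concentration against fatty acid synthase thioesterase at or below 20 µM; inactive = the rest.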

From PubChem BioAssay AID624326 (Sanford-Burnham Center for Chemical Genomics, 2012) come the findings set out here.

The target in the assay is Fatty acid synthase (Homo sapiens) (UniProt P49327). The experiment in a line: FAS thioesterase domain inhibitors, dose response, biochemical, kinetic fluorescence intensity (AID 624326). To be noted: recombinant FAS-TE, OMFH fluorogenic substrate.
Fatty acid synthase (Homo sapiens), sequence (P49327 whole entry, looked up, the tested form may be a part): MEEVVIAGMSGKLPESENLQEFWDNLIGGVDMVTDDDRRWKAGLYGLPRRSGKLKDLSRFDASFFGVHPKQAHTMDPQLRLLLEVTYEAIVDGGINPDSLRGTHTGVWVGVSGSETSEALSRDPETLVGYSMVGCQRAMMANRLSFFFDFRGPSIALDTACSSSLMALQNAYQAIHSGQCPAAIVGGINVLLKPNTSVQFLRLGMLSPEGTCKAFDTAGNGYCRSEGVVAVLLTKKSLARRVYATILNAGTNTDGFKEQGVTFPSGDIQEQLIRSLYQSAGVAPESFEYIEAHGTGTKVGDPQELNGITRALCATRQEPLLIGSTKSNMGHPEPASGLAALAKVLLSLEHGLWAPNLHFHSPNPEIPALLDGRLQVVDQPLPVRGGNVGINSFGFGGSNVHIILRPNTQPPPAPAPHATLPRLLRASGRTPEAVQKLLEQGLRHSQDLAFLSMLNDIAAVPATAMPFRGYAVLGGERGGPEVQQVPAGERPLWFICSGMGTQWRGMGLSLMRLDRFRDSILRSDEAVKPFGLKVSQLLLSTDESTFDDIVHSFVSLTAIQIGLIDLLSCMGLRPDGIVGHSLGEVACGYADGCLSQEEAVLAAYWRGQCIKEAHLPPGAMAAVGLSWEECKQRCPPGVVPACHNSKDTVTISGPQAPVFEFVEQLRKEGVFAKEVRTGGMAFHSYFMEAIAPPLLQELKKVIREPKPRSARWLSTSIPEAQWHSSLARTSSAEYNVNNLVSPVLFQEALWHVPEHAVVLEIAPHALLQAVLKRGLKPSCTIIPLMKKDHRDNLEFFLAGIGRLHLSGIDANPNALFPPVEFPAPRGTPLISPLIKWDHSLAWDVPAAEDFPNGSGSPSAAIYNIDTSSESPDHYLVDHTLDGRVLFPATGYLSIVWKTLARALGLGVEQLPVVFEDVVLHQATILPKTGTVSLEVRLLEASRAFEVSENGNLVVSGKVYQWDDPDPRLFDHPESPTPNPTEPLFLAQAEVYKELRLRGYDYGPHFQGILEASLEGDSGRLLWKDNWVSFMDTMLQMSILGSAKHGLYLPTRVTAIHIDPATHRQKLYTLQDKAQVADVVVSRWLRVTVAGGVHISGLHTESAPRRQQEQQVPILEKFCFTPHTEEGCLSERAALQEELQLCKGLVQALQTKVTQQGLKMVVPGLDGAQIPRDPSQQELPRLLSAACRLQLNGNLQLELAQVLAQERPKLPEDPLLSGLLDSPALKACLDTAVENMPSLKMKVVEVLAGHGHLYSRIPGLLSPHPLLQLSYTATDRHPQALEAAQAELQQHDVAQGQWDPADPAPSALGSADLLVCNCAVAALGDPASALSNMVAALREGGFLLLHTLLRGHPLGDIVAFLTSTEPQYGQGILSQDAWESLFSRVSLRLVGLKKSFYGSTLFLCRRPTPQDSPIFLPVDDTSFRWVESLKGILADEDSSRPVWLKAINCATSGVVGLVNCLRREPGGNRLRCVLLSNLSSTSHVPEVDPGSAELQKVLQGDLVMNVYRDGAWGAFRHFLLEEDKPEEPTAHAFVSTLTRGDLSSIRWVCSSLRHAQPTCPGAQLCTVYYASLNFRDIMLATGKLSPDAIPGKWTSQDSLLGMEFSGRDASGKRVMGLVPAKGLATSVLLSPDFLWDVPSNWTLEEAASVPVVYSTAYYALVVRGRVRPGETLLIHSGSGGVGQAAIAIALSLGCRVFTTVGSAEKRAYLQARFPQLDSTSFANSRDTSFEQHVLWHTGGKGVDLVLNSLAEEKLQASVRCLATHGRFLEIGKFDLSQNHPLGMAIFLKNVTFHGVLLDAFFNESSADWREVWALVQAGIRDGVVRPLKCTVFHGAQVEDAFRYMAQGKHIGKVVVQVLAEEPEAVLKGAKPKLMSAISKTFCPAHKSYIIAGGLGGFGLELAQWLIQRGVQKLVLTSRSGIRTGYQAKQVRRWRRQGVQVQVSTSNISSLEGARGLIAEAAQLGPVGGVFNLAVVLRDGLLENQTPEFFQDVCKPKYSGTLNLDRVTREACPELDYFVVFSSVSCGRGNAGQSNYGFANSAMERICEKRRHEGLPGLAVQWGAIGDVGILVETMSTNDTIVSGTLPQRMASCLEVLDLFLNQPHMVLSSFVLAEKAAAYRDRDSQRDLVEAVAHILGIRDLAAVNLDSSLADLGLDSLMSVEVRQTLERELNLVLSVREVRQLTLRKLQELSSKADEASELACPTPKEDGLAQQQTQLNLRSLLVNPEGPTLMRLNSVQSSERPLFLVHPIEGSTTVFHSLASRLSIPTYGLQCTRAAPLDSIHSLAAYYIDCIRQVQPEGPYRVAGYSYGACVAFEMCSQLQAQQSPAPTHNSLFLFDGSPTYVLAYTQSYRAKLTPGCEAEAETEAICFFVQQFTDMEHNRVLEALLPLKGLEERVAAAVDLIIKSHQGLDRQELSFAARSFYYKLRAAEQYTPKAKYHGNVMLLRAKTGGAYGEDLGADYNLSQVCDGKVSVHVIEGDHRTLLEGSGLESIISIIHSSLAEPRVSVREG

For orientation: IC50 means the concentration that gives 50% inhibition. As for `CCCCC(=O)Nc1nc(-c2ccc(S(=O)(=O)N3CCOCC3)cc2)cs1`, the IC50 is 206 nM.

As to `CCC(C)(C)C1CCC(=NNS(=O)(=O)c2ccc(C)c([N+](=O)[O-])c2)CC1` (configuration not stated), the IC50 entry was “inactive”.
